Measurements from US20040167165A1, “Methods of treating conditions associated with an Edg-7 receptor” (priority 2003, published 2004).

Assays:
[1] = target: T1, Edg-5 (Homo sapiens, UniProt O95136); test: S1P-stimulated calcium increases in HTC cells expressing Edg-5; format: cell-based; conditions: concentrations as high as 10 μM
T1 construct: expressed in transfected cells; host or cells: HTC rat hepatoma cells

[2] = target: T2, Edg-3 (Homo sapiens, UniProt Q99500); test: S1P-stimulated calcium increases in HTC cells expressing Edg-3; format: cell-based; conditions: concentrations as high as 10 μM
T2 construct: expressed in transfected cells; host or cells: HTC rat hepatoma cells
T2 sequence (Q99500 whole entry): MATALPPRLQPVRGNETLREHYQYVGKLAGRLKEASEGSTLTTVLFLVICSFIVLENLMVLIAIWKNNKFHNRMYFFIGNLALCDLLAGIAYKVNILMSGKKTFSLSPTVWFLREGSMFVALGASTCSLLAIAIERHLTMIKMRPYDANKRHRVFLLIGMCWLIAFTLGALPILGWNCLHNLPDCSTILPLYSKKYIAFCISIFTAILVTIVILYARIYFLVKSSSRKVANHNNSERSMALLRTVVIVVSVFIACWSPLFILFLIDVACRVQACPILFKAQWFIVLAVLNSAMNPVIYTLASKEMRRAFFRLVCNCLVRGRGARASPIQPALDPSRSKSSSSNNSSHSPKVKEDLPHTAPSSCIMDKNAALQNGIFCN

[3] = target: T3, Edg-1 (Homo sapiens, UniProt P21453); test: S1P-stimulated calcium increases in HTC cells expressing Edg-1; format: cell-based; conditions: concentrations as high as 10 μM
T3 construct: expressed in transfected cells; host or cells: HTC rat hepatoma cells
T3 sequence (P21453 whole entry): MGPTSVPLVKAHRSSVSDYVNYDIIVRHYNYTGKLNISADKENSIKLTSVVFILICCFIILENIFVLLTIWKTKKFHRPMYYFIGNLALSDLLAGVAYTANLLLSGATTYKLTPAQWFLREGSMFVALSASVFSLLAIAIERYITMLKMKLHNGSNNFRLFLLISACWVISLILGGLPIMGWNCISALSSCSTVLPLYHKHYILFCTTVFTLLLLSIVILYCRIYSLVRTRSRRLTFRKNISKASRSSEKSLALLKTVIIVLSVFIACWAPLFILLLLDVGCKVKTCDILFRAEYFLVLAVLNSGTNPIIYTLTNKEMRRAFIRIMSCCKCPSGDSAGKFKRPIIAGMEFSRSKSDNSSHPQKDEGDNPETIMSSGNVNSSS

[4] = tested on: Edg4; test: LPA-stimulated calcium increases in HTC cells expressing Edg4; format: cell-based; conditions: concentrations as high as 10 μM
[5] = tested on: targets, including GPCRs and ion channels; test: Pharmacology profiling: radioligand binding assays on non-Edg targets; conditions: Section 6.10 panel: adrenergic α1, α2, β, angiotensin AT2, calcium channel Type L, dopamine D2L, endothelin ETA, histamine H1, muscarinic, serotonin 5-HT1; significance criteria ≧50%
Description: In order to test the selectivity of compounds, various enzyme assays as well as radioligand binding assays were performed using numerous non-Edg receptor targets as listed below.
A radioligand binding assay was performed using adrenergic α1 according to the method of Greengrass and Bremner 1979, Eur. J. Pharmacol. 55:323-326. A radioligand binding assay was performed using adrenergic α2 according to the method of Boyajian and Leslie, 1987, J. Pharmacol. Exp. Ther. 241:1092-1098. A radioligand binding assay was performed using adrenergic β according to the method of Feve et al., 1994, Proc. Natl. Acad. Sci. USA 91:5677-5681. A radioligand binding assay was performed using angiotensin AT2 according to the method of Whitebread et al., 1991, Biochem. Biophys. Res. Comm. 181:1365-1371. A radioligand binding assay was performed using calcium channel Type L, dihydropyridine according to the method of Ehlert et al., 1982, Life Sci. 30:2191-2202. A radioligand binding assay was performed using dopamine D2L according to the method of Bunzo et al., 1988, Nature 336:783-787. A radioligand binding assay was performed using endothelin ETA according to the method of Mihara et al., 1994, J. Phrmacol. Exp Ther. 268:1122-1127. A radioligand binding assay was performed using histamine H1 Central according to the method of Hill et al., 1978, J. Neurochem. 31:997-1004. […]

[6] = target: T4, Edg-8 (Homo sapiens, UniProt Q9H228); test: S1P-stimulated calcium increases in HTC cells expressing Edg-8; format: cell-based; conditions: concentrations as high as 10 μM
T4 construct: expressed in transfected cells; host or cells: HTC rat hepatoma cells
T4 sequence (Q9H228 whole entry): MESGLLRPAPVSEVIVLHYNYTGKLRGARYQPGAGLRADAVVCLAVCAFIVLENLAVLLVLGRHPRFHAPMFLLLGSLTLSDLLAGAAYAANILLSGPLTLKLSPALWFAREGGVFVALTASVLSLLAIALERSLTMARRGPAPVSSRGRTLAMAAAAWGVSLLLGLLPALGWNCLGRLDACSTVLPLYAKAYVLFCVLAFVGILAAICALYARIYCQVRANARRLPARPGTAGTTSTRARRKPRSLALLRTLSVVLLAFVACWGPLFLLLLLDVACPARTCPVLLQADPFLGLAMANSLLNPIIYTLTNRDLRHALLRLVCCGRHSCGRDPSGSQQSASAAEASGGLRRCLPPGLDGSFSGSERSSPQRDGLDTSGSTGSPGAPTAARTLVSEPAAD

[7] = target: T5, Edg-2 (Homo sapiens, UniProt Q92633); test: LPA-stimulated calcium increases in HTC cells expressing Edg-2; format: cell-based; conditions: concentrations as high as 10 μM
T5 construct: expressed in transfected cells; host or cells: HTC rat hepatoma cells
T5 sequence (Q92633 whole entry): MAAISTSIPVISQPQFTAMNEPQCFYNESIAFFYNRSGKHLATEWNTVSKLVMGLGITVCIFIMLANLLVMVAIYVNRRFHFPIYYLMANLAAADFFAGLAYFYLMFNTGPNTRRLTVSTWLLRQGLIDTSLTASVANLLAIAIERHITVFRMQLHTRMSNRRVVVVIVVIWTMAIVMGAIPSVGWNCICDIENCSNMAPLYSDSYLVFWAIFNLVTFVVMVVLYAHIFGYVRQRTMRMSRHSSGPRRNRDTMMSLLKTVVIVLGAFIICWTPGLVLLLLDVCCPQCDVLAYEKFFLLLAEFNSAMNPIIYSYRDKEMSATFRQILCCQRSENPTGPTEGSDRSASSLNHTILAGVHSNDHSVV

[8] = target: T6, human Edg 7 receptors (Homo sapiens, UniProt Q9UBY5); test: LPA-stimulated calcium mobilization (FLIPR) in HTC cells expressing Edg-7; format: cell-based
T6 construct: expressed in transfected cells; host or cells: HTC rat hepatoma cells
T6 sequence (Q9UBY5 1-353): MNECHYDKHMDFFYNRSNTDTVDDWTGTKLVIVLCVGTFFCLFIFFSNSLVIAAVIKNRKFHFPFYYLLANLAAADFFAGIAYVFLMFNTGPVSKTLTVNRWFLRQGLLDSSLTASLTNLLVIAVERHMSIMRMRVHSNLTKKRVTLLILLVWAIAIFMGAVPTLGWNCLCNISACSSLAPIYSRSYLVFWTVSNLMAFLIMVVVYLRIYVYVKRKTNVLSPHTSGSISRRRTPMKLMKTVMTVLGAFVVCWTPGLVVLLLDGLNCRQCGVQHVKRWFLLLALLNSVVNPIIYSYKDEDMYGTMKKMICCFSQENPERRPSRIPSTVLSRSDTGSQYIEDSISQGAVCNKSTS
Description: The compounds were tested in HTC cells expressing human Edg 7 receptors, as well as in HT1080 human fibrosarcoma cell lines that naturally express Edg 7 receptors. […] The compounds are tested in this recombinant system first, and subsequently tested in cell lines expressing Edg-7 (in addition to other Edg receptors).
LPA receptors such as Edg-7, couple to calcium effector pathways, and result in increases in intracellular calcium following receptor activation (An, 1998, J. Cell. Biochem Supp. 30-31:147-157). This biological response lends itself to a very efficient, high-throughput screen using a Fluorescence Imaging Plate Reader (FLIPR; Molecular Devices, Sunnyvale, Calif.). The FLIPR system is a real-time, cell-based assay system with continuous fluorescence detection using a cooled CCD camera. The FLIPR system was used to developing an Edg-7 receptor screen. Rat hepatoma cells stably expressing Edg-7 receptor were plated on 384-well plates and loaded with a calcium dye loading kit (Molecular Devices, Sunnyvale, Calif.) for 1 hour at room temperature. Cells were then placed on the FLIPR^384 (Molecular Devices, Sunnyvale, Calif.) and excited by an argon laser at 488 nm. The data for the entire 384-well plate was updated every second. An integrated robotic pipettor allowed for simultaneous compound addition into each individual well in the plate.

T1 sequence (O95136 whole entry): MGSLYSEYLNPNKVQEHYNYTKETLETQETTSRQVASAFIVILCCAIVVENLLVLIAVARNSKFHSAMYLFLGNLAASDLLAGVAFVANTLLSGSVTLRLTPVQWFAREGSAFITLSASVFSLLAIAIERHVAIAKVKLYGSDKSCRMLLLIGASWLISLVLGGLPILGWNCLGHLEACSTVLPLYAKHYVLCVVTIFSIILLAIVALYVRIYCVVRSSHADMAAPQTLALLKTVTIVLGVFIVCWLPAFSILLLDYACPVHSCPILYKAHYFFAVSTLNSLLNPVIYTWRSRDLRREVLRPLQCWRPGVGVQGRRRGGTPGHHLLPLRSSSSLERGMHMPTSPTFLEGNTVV

inhibition of S1P-stimulated calcium increases [1] | inhibition of S1P-stimulated calcium increases [2] | inhibition of S1P-stimulated calcium increases [3] | activity in radioligand binding assays [5] | inhibition of S1P-stimulated calcium increases [6] | inhibition of LPA-stimulated calcium increases [7] | inhibition of the Edg-7 receptor ([8]; FIG. 1, HTC cells) | inhibition of Edg-7 stimulated LPA responses ([8]; HTC cells expressing human Edg 7 receptors, as well as HT1080 human fibrosarcoma cell lines) | melting point [°C] | SMILES | inhibition of LPA-stimulated calcium increases [4]
did not inhibit | did not inhibit | did not inhibit | no significant activity | did not inhibit | did not inhibit | specifically inhibit | demonstrate inhibition | – | CCOC(=O)c1c(NC(=O)NS(=O)(=O)c2ccccc2Cl)sc2c1CCCC2 [Compound 101] | did not inhibit
– | – | – | – | – | – | – | – | 284 to 285 | COc1ccc(-c2nc3ccc(C(=O)O)cc3nc2-c2ccc(OC)cc2)cc1 [Compound 129, 2,3-bis-(4-Methoxyphenyl)quinoxaline-6-carboxylic acid] | –
– | – | – | – | – | – | – | – | 103 to 105 | Cc1cc(C)c2c(c1)Cc1ccccc1S2(=O)=O [Compound 133, 2,4-Dimethyl-9H-thioxanthene 10,10-dioxide] | –
